These results are taken from ChEMBL document CHEMBL3046630, “Isolation and antifungal and antioomycete activities of staurosporine from Streptomyces roseoflavus strain LS-A24” (J Agric Food Chem, 2006).

The subject of data set [1] is Phytophthora capsici. Put plainly: Antioomycete activity against Phytophthora capsici zoospores suspension infected in pepper plants (cv. Hanbyul) at first branch stage pre-exposed to compound spray on stems before fungal infection assessed as reduction in Phyophthora blight disease severity at 100 ug/mL under greenhouse conditions. The format is functional, organism-based.

For data set [2], the system named is Phytophthora capsici. Put plainly: Antioomycete activity against Phytophthora capsici zoospores suspension infected in pepper plants (cv. Hanbyul) at first branch stage pre-exposed to compound spray on stems before fungal infection assessed as reduction in Phyophthora blight disease severity at 1 to 1000 ug/mL under greenhouse conditions. The format is functional, organism-based.

Data set [3] has as its system Phytophthora capsici. Put plainly: Antioomycete activity against Phytophthora capsici zoospores suspension infected in pepper plants (cv. Hanbyul) at first branch stage pre-exposed to compound spray on stems before fungal infection assessed as reduction in Phyophthora blight disease severity at 500 ug/mL under greenhouse conditions. The format is functional, organism-based.

In the next data set the test system is Capsicum annuum. The experiment in a line: Phytotoxicity in Phytophthora capsici zoospores suspension infected Capsicum annuum cv. Hanbyul (pepper) at first branch stage pre-exposed to compound spray on stems before fungal infection at 500 ug/mL under greenhouse conditions. The class given is organism-based. The conditions noted are these: in vivo, other.

Active and inactive are the calls of the source. The calls are words filed in the database; no cut-off is given here.

With `COCC(=O)N(c1c(C)cccc1C)C(C)C(=O)OC` (stereo not given), in the data set with Phytophthora capsici [1], the outcome was Active. Further, the Activity entry with Phytophthora capsici [2] was “Dose-dependent effect”.
Turning to `CN[C@@H]1C[C@H]2O[C@@](C)([C@@H]1OC)n1c3ccccc3c3c4c(c5c6ccccc6n2c5c31)C(=O)NC4` [STAUROSPORINE], the Activity result was “Dose-dependent effect” with Phytophthora capsici [2] and “Non-toxic” with Capsicum annuum. Besides, the result in the data set on Phytophthora capsici [3] was Active.
